Test results published in US9532569B2 (INSTITUT NATIONAL DE LA RECHERCHE AGRONOMIQUE, priority 2012, dated 2017).

What was measured:
pea rms1 mutants = assay: Hydroponic culture test in pea; type: in vivo, Pisum sativum L.; settings: 8 days
Description: For this example, ramosus (rms1) hyperbranched pea (Pisum sativum L.) mutants were used.
More particularly, rms1 (rms1-10) hyperbranched mutant plants were used. The nutritive solution (100%) was prepared by adding the following macronutrients to 1000 l of water: HNO3 (0.28 l), (NH4)2HPO4 (120 g), Ca(NO3)2 (40 g), Mg(NO3)2 (140 g), KNO3 (550 g), (NH4)2MoO4 (0.05 g), H3BO3 (15 g), MnSO4.H2O (2 g), ZnSO4.7H2O (1 g), CuSO4.5H2O (0.25 g), Sequestrene® (10 g) (Fe-EDTA solution). The pea seeds were germinated in moist sand for 6 days, then placed in holes of a lid (35 holes/lid, 20 mm in diameter) of an opaque PVC pot containing the hydroponic culture solution (47 l, pH 5.8).
In a first experiment, acetone or the compound to be tested (dissolved in acetone) was added to the hydroponic culture solution so as to obtain a final concentration of 0 or 1 μM of compound to be tested and 0.01% of acetone.
The hydroponic culture solution was continually aerated by means of an aquarium pump and replaced each week. 8 days after the start of the treatment, the lengths of bud/branch (nodes 1 to 6) were measured with an electronic sliding caliper.
This experiment was carried out for the compounds according to the invention (IIa) and (IIIb), and also the GR24 compound as comparative compound. A negative control (<<CTL 0>>), corresponding to a treatment with the solvent alone, was also carried out.
The results (mean data on 20 plants), in terms of, on the one hand, length of the branches at nodes 3 to 5 and, on the other hand, plant height, are shown respectively in FIGS. 11 and 12.
The same experiment was carried out for the compound in accordance with the invention (II″g) and the comparative compound GR24. Dimethyl sulfoxide (DMSO) or the compound to be tested, dissolved in DMSO, was added to the hydroponic culture solution so as to obtain a final concentration of 0 or 3 μM of compound to be tested and 0.01% of DMSO.
The results (mean data on 10 to 12 plants), in terms, on the one hand, of length of the branches at nodes 3 to 4 and, on the other hand, of plant height, are shown respectively in FIGS. 13 and 14.

pea mutant rms1 = assay: Inhibition of branching in the pea, application directly on the axillary bud; type: in vivo, Pisum sativum L.; settings: for bud growth inhibition (length of bud/branch at node 3, 8 days after treatment at node 3): Experiment 3, FIG. 5
Description: Generally, in the pea, the first two scales are considered to be the first two nodes, the cotyledonary node being node 0.
The rms1 mutant is an “SMS” signal biosynthesis mutant, repressing branching of the plant.
Tests for activity on the inhibition of branching were carried out in the following way.
The strigolactone-deficient rms1 (ccd8) pea mutants described in Beveridge et al., 1997, were used for the test (M3T884 line derived from the Térèse variety).
The activity of the compounds (IIa), (II′d) and (II′e) in accordance with the invention and of the comparative compound GR24 was evaluated at respective doses of 10 nM, 100 nM and 1 μM, by treatment at node 3. […]
24 plants were sown per treatment. 8 days after sowing, the treatment was carried out on the axillary bud at node 3, by application of 10 μl of each solution to be tested, directly on the bud, by means of a micropipette. The lateral outgrowths at nodes 1 and 2 were removed in order to encourage the growth of the axillary buds at the higher nodes. […]
The activity of the compounds (IIa), (IIb), (IIc), (II′d), (II′e) and (II′f) in accordance with the invention was evaluated at respective doses of 100 nM and 1 μM, by treatment at node 3.
For this, solutions containing each compound to be tested, in 1% acetone, 4% propylene glycol 1450 and 50% ethanol, were used.
The activity of the compounds (IIa), (IIIa), (IIIb) and (IIIc) in accordance with the invention, and also of GR24 as comparative compound, was evaluated at respective doses of 100 nM and 1 μM, by treatment at node 3, according to the protocol described above with reference to experiment 2.
A sample consisting only of the solvent, and without active compound, was also tested as negative control, termed “CTL 0”.
In this experiment, the activity of the compound (IIIa) in accordance with the invention, and also of GR24 as comparative compound, was evaluated at respective doses of 1 nM, 10 nM, 100 nM and 1 μM, by treatment at node 3, according to the protocol described above with reference to experiment 2, for doses of 10 nM, 100 nM and 1 μM of compounds.
A sample consisting only of the solvent, and without active compound (“CTL 0”) was also tested as a negative control. A nontreated (“NT”) control was also carried out.
(§1) A dose-response test for evaluating the activity of the compounds by deposition at node 3 was carried out according to the protocol described above with reference to experiment 2, for the compound in accordance with the invention (IIa) and for the comparative compounds GR24, Comp. 3 and Comp. 4. Concentrations of 10 nM, 100 nM and 1 μM were tested.
A sample consisting only of the solvent, and without active compound (“CTL 0”), was also tested as a negative control. A nontreated (“NT”) control was also carried out.
as §1, with “Comp. 5” for “Comp. 3”, “Comp. 6.” for “Comp. 4.”, “10 nM and” for “10 nM,”, “nM” for “nM and 1 μM”, “tested. […]” for “tested.”
The sprouting of the axillary buds at node 4 was measured 8 days after the treatment by means of a digital sliding caliper.
The activity of the compound (IIIa) in accordance with the invention on bud growth at node 3 was evaluated at a dose of 1000 nM by treatment at node 3. The GR24 compound was tested at the same concentration as comparative compound. […]

MRC5 cells = assay: In vitro cytotoxicity study on MRC5 cells (MTS); type: cell-based, human; settings: Homo sapiens, MRC5, 72 hours, ± standard error, read-out: Percentage inhibition of MRC5 cell growth; for inhibition at 100 µM: 10^−4M; for inhibition at 10 µM: 10^−5M
Description: The cytotoxicity of the compound (IIa) according to the invention, and that of GR24 and of GR5 as comparative compounds, was evaluated in vitro, at concentrations of 10^−4 M and 10^−5 M, on MRC5 cells, in DMSO, in the following way.
MRC5 cells (human lung (fibroblasts) were cultured in Dulbecco's modified Eagle medium (DMEM) supplemented with: 25 mM of glucose, 10% (v/v) of fetal calf serum, 100 IU of penicillin, 100 μg/ml of streptomycin and 1.5 μg/ml of fungizone, and kept under 5% of CO2 at 37° C.
96-well plates were seeded with 2100 MRC5 cells per well in 200 μl of medium. After 24 hours, each of the compounds dissolved in DMSO was added for 72 hours, at a final concentration of 10^−4 M or 10^−5 M in a fixed volume of DMSO. The controls received an equal volume of DMSO.
The viable cell number was measured at 490 nm with the MTS reagent (Promega), and, for each compound, the concentration causing 50% inhibition of cell growth, IC50, was calculated.

Phelipanche ramosa pv C = assay: Germinative activity on parasitic plants; type: in vivo; settings: counted after 4 days
Description: (§2) In this example, the germinative activity of the compounds in accordance with the invention (IIa) and (IIIb) and of the comparative compound GR24 was evaluated on the parasitic plants: Orobanche cumana, Orobanche minor, Striga hermonthica, Phelipanche ramosa (pv T and pv C).
(§3) The test protocol used was the following.
(§4) Two populations of Phelipanche ramosa were used in this study, pathovar (pv) C and T, described in the publication by Benharrat et al. (2005). Seeds of Phelipanche ramosa pathovar C were collected at Saint Martin de Fraigneau, France, on broomrapes parasitizing winter oilseed rape (Brassica napus L.) in 2005 and seeds of Phelipanche ramosa pathovar T were collected in Sarthe, France, on broomrapes developing on hemp (Cannabis sativa L.) in 2007.
(§5) The seeds are stored dry in the dark at 25° C.
(§6) The compounds to be studied were resuspended in acetone at 10 mmol·l^−1, then diluted with water to 1 mmol·l^−1 (water/acetone; v/v; 99/1). Dilutions of 1×10^−3 mol·l^−1 to 1×10^−15 mol·l^−1 were then prepared in a water/acetone mixture (v/v; 99/1). Seeds of parasitic plants were surface-sterilized according to the protocol described in the publication by Vieira Dos Santos et al. (2003), then resuspended in sterile water (10 g·l^−1) and distributed on a 96-well plate (in a proportion of 50 μl, i.e. approximately 100 seeds per well). After preconditioning (7 days, 21° C., in the dark, plate hermetically sealed, except for the seeds of S. hermonthica, which were preconditioned at 30° C.), the compounds to be studied were added and the volumes adjusted to 100 μl with water (water/acetone; v/v; 999/1).
(§7) In a plate, a range of concentrations from 10^−13 mol·l^−1 to 10^−6 mol·l^−1 was applied for GR24 and (IIa) and from 10^−12 to 10^−5 mol·l^−1 for (IIIb). Controls were carried out with a water/acetone mixture (v/v; 999/1) and without seeds. The plates were incubated so as to allow germination (21° C., in the dark or 30° C. for Striga hermonthica.). After 4 days, the seeds which had germinated were counted under a stereomicroscope (SZX10, Olympus). The seeds were considered to have germinated when the radicle was sticking out of the seed tegument. Each germination test was repeated at least 3 times. For each compound tested, dose-response curves (g=f(c), where g is the germination percentage and c the concentration (mol·l^−1)), and the EC50 (median effective concentration) were modeled on the basis of a 4-parameter logistic curve calculated with SigmaPlot® 10.0.
(§8) The percentages of maximum germination induced by the compounds tested for each parasitic plant were determined.

Phelipanche ramosa pv T = assay: Germinative activity on parasitic plants; type: in vivo; settings: counted after 4 days
Description: as §2, §3, §4, §5, §6, §7, §8

Striga hermonthica = assay: Germinative activity on parasitic plants; type: in vivo; settings: counted after 4 days, 30° C.
Description: as §2, §3
Seeds of Striga hermonthica (Del.) Benth were collected at Gadarif, Eastern Sudan, in 1999.
as §5, §6
as §7, with “The seeds were considered to have germinated when the radicle was sticking out of the seed tegument. Each germination test was repeated at least 3 times.” left out
as §8

Orobanche cumana = assay: Germinative activity on parasitic plants; type: in vivo; settings: counted after 4 days
Description: as §2, §3
(§9) Seeds of Orobanche cumana Wallr. were collected from broomrapes parasitizing sunflower (Helianthus annuus L.), at Longeville-sur-mer, France, in 2009; seeds of clover broomrape (Orobanche minor Sm.) from a parasite of red clover (Trifolium pratense L.) were obtained from Professor K. Yoneyama (Utsunomiya University, Japan).
as §5, §6, §7, §8

Orobanche minor = assay: Germinative activity on parasitic plants; type: in vivo; settings: counted after 4 days
Description: as §2, §3, §9, §5, §6, §7, §8

[1] = Experiment 2, FIG. 4, 100 nM and 1 μM
[2] = Experiment 1, FIG. 3, concentration of 1 μM

With `CC1=C(C)C(Oc2ccc3ccc(=O)oc3c2)OC1=O` (stereo not shown) [Compound (II″g), 7-[3,4-dimethylfuran-2(5H)-one]oxycoumarin] the “length of the branches at nodes 3 to 4” value (pea rms1 mutants; 3 μM in hydroponic culture solution, FIG. 13) was “an activity on all the branches of nodes 3 to 4, and also an effect on plant height, which are both greater than those of the comparative compound GR24” and the plant height (pea rms1 mutants; 3 μM in hydroponic culture solution, FIG. 14) was “an effect on plant height, which are both greater than those of the comparative compound GR24”.
`C=C/C(C)=C/OC1OC(=O)C(C)=C1C` (stereo not shown) [Compound (IIIc), (E)-3,4-dimethyl-5-((2-methylbuta-1,3-dien-1-yl)oxy)furan-2(5H)-one] was tested, and the “bud growth inhibition (length of bud/branch at node 3, 8 days after treatment at node 3)” value (pea mutant rms1; 100 nM and 1 μM) was “slightly less active, exhibit, however, a high activity in terms of bud growth inhibition”.
In the case of `CC1=C(C)C(Sc2ccc(C(F)(F)F)cc2)OC1=O` (stereo not shown) [Compound (IIc), 3,4-dimethyl-5-((4-(trifluoromethyl)phenyl)thio)furan-2(5H)-one], the “inhibitory activity on bud growth (length of bud/branch at node 3, 8 days after treatment at node 3)” value (pea mutant rms1; [1]) is reported as “most active”.
`CC1=CC(O/C=C2/C(=O)OC3c4ccccc4C[C@H]23)OC1=O` (stereo partly shown) [GR24, reference compound] was tested, and the inhibition at 100 µM (MRC5 cells) was 97 ± 1%, the inhibition at 10 µM (MRC5 cells) was 0% and the plant height (pea rms1 mutants; 1 μM in hydroponic culture solution, FIG. 12) was “significant effect on plant height is also demonstrated, comparable between the comparative compound GR24 and the compound in accordance with the invention (IIa)”. The “Percentage of maximum germination induced” value (from here on “Percentage”) (Phelipanche ramosa pv C) was 89 ± 6%, the “Percentage” value (Phelipanche ramosa pv T) was 87 ± 7% and the “Percentage” value (Striga hermonthica) was 57 ± 5%. For the same compound, the “Percentage” value (Orobanche cumana) was 78 ± 5% and the “Percentage” value (Orobanche minor) was 81 ± 5%.
`CC(C=O)=COC1OC(=O)C(C)=C1C` (stereo not shown) [Compound (IIIa), 3-((3,4-dimethyl-5-oxo-2,5-dihydrofuran-2-yl)oxy)-2-methylacrylaldehyde] was tested, and the “bud growth inhibition (length of bud/branch at node 3, 8 days after treatment at node 3)” value (pea mutant rms1; 100 nM and 1 μM) was “slightly less active, exhibit, however, a high activity in terms of bud growth inhibition” and the “inhibitory activity on bud growth at node 3 (length of bud/branch 8 days after treatment at node 3)” value (pea mutant rms1; Experiment 8, FIG. 10, 1000 nM) was “although less than that of GR24, is highly significant”.
`CC1=C(C)C(Oc2ccc(Cl)cc2)OC1=O` (stereo not shown) [Compound (II′d), 5-(4-chlorophenoxy)-3,4-dimethylfuran-2(5H)-one] was tested, and the “inhibitory activity on bud growth (length of bud/branch at node 3, 8 days after treatment at node 3)” value (pea mutant rms1; [2]) was “exhibit an inhibitory activity on bud growth at node 3”.
For `CC1=C(C)C(Oc2ccc(Br)cc2)OC1=O` (stereo not shown) [Compound (II′e), 5-(4-bromophenoxy)-3,4-dimethylfuran-2(5H)-one], the “inhibitory activity on bud growth (length of bud/branch at node 3, 8 days after treatment at node 3)” value (pea mutant rms1; [2]) was “exhibit an inhibitory activity on bud growth at node 3”.
`CC1=C(C)C(Sc2ccc(Br)cc2)OC1=O` (stereo not shown) was tested, and the “inhibitory activity on bud growth (length of bud/branch at node 3, 8 days after treatment at node 3)” value (pea mutant rms1; [1]) was “most active”.
Work on `CC1=CC(O/C=C2\CCOC2=O)OC1=O` (stereo not shown) [GR5] yielded an inhibition at 100 µM (MRC5 cells) of 66 ± 1% and an inhibition at 10 µM (MRC5 cells) of 0%.
